Values after ≈ are worked out from the molar mass of the structure shown. Like-named read-outs stand apart in the source and are kept apart here.
Key:
Str. pyogenes A-9604 = experiment: MIC, tube dilution, Streptococcus pyogenes A9604; assay type: cell-based; details: Streptococcus pyogenes, A9604, Str. pyogenes A9604; overnight 37° C., Nutrient Broth; read-out: Minimum Inhibitory Concentration (M.I.C.)
Description: (§1) Representative compounds of the present invention were subjected to in vitro antibiotic screening against a variety of microorganisms.

[1] = system: Staph. aureus (Meth-Res) A-15097; experiment: MIC, tube dilution, Staphylococcus aureus A15097 (Meth-Res); assay type: cell-based; details: Staphylococcus aureus, overnight 37° C.
Description: as §1

Ps. aeruginosa A-21213 = experiment: MIC, tube dilution, Pseudomonas aeruginosa A21213; assay type: cell-based; details: overnight 37° C., read-out: Minimum Inhibitory Concentration (M.I.C.)
Description: as §1

E. coli A-20341-1 = experiment: MIC, tube dilution, Escherichia coli A20341-1; assay type: cell-based
Description: as §1

Str. pneumoniae A-9585 = experiment: MIC, tube dilution, Streptococcus pneumoniae A9585; assay type: cell-based; details: Streptococcus pneumoniae, A9585, Str. pneumoniae A9585; overnight 37° C., Nutrient Broth; read-out: Minimum Inhibitory Concentration (M.I.C.)
Description: as §1

[2] = system: Klebsiella species A20468; experiment: MIC, tube dilution, Klebsiella species A20468; assay type: cell-based; details: Klebsiella species (K. pneumoniae) A20468; overnight 37° C.; read-out: Minimum Inhibitory Concentration (M.I.C.)
Description: as §1

[3] = system: Staph. aureus (Pen-Res) A-9606; experiment: MIC, tube dilution, Staphylococcus aureus A9606 (Pen-Res); assay type: cell-based; details: Staphylococcus aureus, overnight 37° C.
Description: as §1

K. pneumoniae A-15130 = experiment: MIC, tube dilution, Klebsiella pneumoniae A15130; assay type: cell-based; details: overnight 37° C.; for MIC: Klebsiella pneumoniae, A15130, K. pneumoniae A15130, read-out: Minimum Inhibitory Concentration (M.I.C.)
Description: as §1

[4] = system: Providencia stuartii A21205; experiment: MIC, tube dilution, Providencia stuartii (Pr. rettgeri) A21205; assay type: cell-based; details: for MIC: Providencia stuartii
Description: as §1

Ent. cloacae A-9659 = experiment: MIC, tube dilution, Enterobacter cloacae A9659; assay type: cell-based; details: overnight 37° C.; for MIC: Enterobacter cloacae, A9659, Enterobacter cloacae A9659, read-out: Minimum Inhibitory Concentration (M.I.C.); for Minimum Inhibitory Concentration (M.I.C.): Enterobacter cloacae A9659
Description: as §1

Str. faecalis A-20688 = experiment: MIC, tube dilution, Streptococcus faecalis A20688; assay type: cell-based; details: Enterococcus faecalis, A20688, Str. faecalis A20688; overnight 37° C.; read-out: Minimum Inhibitory Concentration (M.I.C.)
Description: as §1

E. coli A-15119 = experiment: MIC, tube dilution, Escherichia coli A15119; assay type: cell-based; details: overnight 37° C.; for MIC: Escherichia coli, A15119, E. coli A15119, read-out: Minimum Inhibitory Concentration (M.I.C.)
Description: as §1

Ps. aeruginosa A-9843A = experiment: MIC, tube dilution, Pseudomonas aeruginosa A9843A; assay type: cell-based; details: Pseudomonas aeruginosa, A9843A, read-out: Minimum Inhibitory Concentration (M.I.C.), Pseudomonas aeruginosa A9843A; overnight 37° C.
Description: as §1

Pr. vulgaris A-9716 = experiment: MIC, tube dilution, Proteus vulgaris / Proteus mirabilis A9716; assay type: cell-based, Proteus vulgaris (name changed to Proteus mirabilis); details: overnight 37° C.; for MIC: Proteus vulgaris
Description: as §1

[5] = system: Staph. aureus A-9537 and 50% serum; experiment: MIC, tube dilution, Staph. aureus A9537 + 50% serum; assay type: cell-based, Staphylococcus aureus; details: overnight 37° C.; for MIC: Staphylococcus aureus, read-out: Minimum Inhibitory Concentration (M.I.C.)
Description: as §1

Pr. mirabilis A-9900 = experiment: MIC, tube dilution, Proteus mirabilis A9900; assay type: cell-based; details: overnight 37° C.; for MIC: Proteus mirabilis, A9900, Proteus mirabilis A9900, read-out: Minimum Inhibitory Concentration (M.I.C.)
Description: as §1

Ser. marcescens A-20019 = experiment: MIC, tube dilution, Serratia marcescens A20019; assay type: cell-based; details: overnight 37° C.; for MIC: Serratia marcescens, A20019, Serratia marcescens A20019, read-out: Minimum Inhibitory Concentration (M.I.C.); for Minimum Inhibitory Concentration (M.I.C.): Serratia marcescens A20019
Description: as §1

Pr. morganii A-15153 = experiment: MIC, tube dilution, Proteus morganii A15153; assay type: cell-based; details: Morganella morganii, A15153, Proteus morganii A15153; overnight 37° C.; read-out: Minimum Inhibitory Concentration (M.I.C.)
Description: as §1

Staph. aureus A-9537 = experiment: MIC, tube dilution, Staphylococcus aureus A9537; assay type: cell-based; details: Staphylococcus aureus, A9537, Staph. aureus A9537; overnight 37° C., Nutrient Broth; read-out: Minimum Inhibitory Concentration (M.I.C.)
Description: as §1

Ent. cloacae A-9656 = experiment: MIC, tube dilution, Enterobacter cloacae A9656; assay type: cell-based; details: overnight 37° C., read-out: Minimum Inhibitory Concentration (M.I.C.)
Description: as §1

[6] = Staph. aureus A15097 (Meth-Res), read-out: Minimum Inhibitory Concentration (M.I.C.)
[7] = Escherichia coli, A203411; E. coli A20341-1; overnight 37° C.; read-out: Minimum Inhibitory Concentration (M.I.C.)
[8] = Staph. aureus A9606 (Pen-Res), read-out: Minimum Inhibitory Concentration (M.I.C.)
[9] = A21205, Providencia stuartii (Pr. rettgeri) A21205, overnight 37° C., read-out: Minimum Inhibitory Concentration (M.I.C.)
[10] = A9716, Proteus vulgaris / Proteus mirabilis A9716, read-out: Minimum Inhibitory Concentration (M.I.C.)
[11] = Enterobacter cloacae, A9656, Enterobacter cloacae A9656
[12] = Escherichia coli, A203411, E. coli A20341-1; overnight 37° C.; read-out: Minimum Inhibitory Concentration (M.I.C.)
[13] = read-out: Minimum Inhibitory Concentration (M.I.C.), Staph. aureus A15097 (Meth-Res)

SMILES	MIC (Str. pyogenes A-9604)	MIC [1, 6]	MIC (Ps. aeruginosa A-21213; Pseudomonas aeruginosa A21213)	MIC (E. coli A-20341-1; [7])	MIC (Str. pneumoniae A-9585)	MIC [2]	MIC [3, 8]	MIC (K. pneumoniae A-15130)	MIC [4, 9]	MIC (Ent. cloacae A-9659)	MIC (Str. faecalis A-20688)	MIC (E. coli A-15119)	MIC (Ps. aeruginosa A-9843A)	MIC (Pr. vulgaris A-9716; [10])	MIC [5]	MIC (Pr. mirabilis A-9900)	MIC (Ser. marcescens A-20019)	MIC (Pr. morganii A-15153)	MIC (Staph. aureus A-9537)	MIC (Ent. cloacae A-9656; [11])	other results
CCC1=C(C(=O)O)N2C(=O)C[C@H]2S1 [Preparation 10, 2-Ethylpenem-3-carboxylic Acid]	0.5 µg/mL (≈ 2.51 µM)	0.5 µg/mL (≈ 2.51 µM)	125 µg/mL (≈ 627 µM)	125 µg/mL (≈ 627 µM)	0.03 µg/mL (≈ 0.151 µM)	> 125 µg/mL	0.5 µg/mL (≈ 2.51 µM)	8 µg/mL (≈ 40.2 µM)	4 µg/mL (≈ 20.1 µM)	16 µg/mL (≈ 80.3 µM)	32 µg/mL (≈ 161 µM)	4 µg/mL (≈ 20.1 µM)	> 125 µg/mL	4 µg/mL (≈ 20.1 µM)	16 µg/mL	4 µg/mL (≈ 20.1 µM)	4 µg/mL (≈ 20.1 µM)	8 µg/mL (≈ 40.2 µM)	0.13 µg/mL (≈ 0.653 µM)	16 µg/mL (≈ 80.3 µM)	–
O=C(O)CCC1=C(C(=O)O)N2C(=O)CC2S1 (centres unmarked) [Preparation 11, Disodium 2-(2-carboxyethyl)penem-3-carboxylate]	4 µg/mL	63 µg/mL	> 125 µg/mL	–	0.13 µg/mL	> 125 µg/mL	32 µg/mL	63 µg/mL	1 µg/mL	63 µg/mL	125 µg/mL	16 µg/mL	> 125 µg/mL	4 µg/mL	> 63 µg/mL	4 µg/mL	4 µg/mL	63 µg/mL	16 µg/mL	63 µg/mL	MIC (E. coli A-20341-1; [12]): 63 µg/mL
O=C(O)C1=C(COc2ccccc2)S[C@@H]2CC(=O)N12 [Preparation 12, 2-Phenoxymethylpenem-3-carboxylic Acid]	0.5 µg/mL (≈ 1.8 µM)	1 µg/mL (≈ 3.61 µM)	> 125 µg/mL	> 125 µg/mL	0.5 µg/mL (≈ 1.8 µM)	> 125 µg/mL	0.5 µg/mL (≈ 1.8 µM)	> 125 µg/mL	63 µg/mL (≈ 227 µM)	> 125 µg/mL	63 µg/mL (≈ 227 µM)	63 µg/mL (≈ 227 µM)	> 125 µg/mL	16 µg/mL (≈ 57.7 µM)	> 63 µg/mL	16 µg/mL (≈ 57.7 µM)	> 125 µg/mL	16 µg/mL (≈ 57.7 µM)	1 µg/mL (≈ 3.61 µM)	–	MIC (Ent. cloacae A-9656; Enterobacter cloacae A9656): > 125 µg/mL
O=C(O)C1=C(c2ccco2)SC2CC(=O)N12 (centres unmarked) [Preparation 13, 2-(2'-Furyl)penem-3-carboxylic Acid]	1 µg/mL (≈ 4.22 µM)	16 µg/mL (≈ 67.4 µM)	–	–	1 µg/mL (≈ 4.22 µM)	> 63 µg/mL	8 µg/mL (≈ 33.7 µM)	32 µg/mL (≈ 135 µM)	4 µg/mL (≈ 16.9 µM)	63 µg/mL (≈ 266 µM)	32 µg/mL (≈ 135 µM)	8 µg/mL (≈ 33.7 µM)	> 63 µg/mL	4 µg/mL (≈ 16.9 µM)	> 32 µg/mL	4 µg/mL (≈ 16.9 µM)	16 µg/mL (≈ 67.4 µM)	32 µg/mL (≈ 135 µM)	1 µg/mL (≈ 4.22 µM)	63 µg/mL (≈ 266 µM)	MIC (Ps. aeruginosa A-21213; Pseudomonas aeruginosa, A21213, Pseudomonas aeruginosa A21213): > 63 µg/mL; MIC (E. coli A-20341-1; [12]): > 63 µg/mL
O=C([O-])C1=C(COCc2ccccc2)S[C@@H]2CC(=O)N12.[Na+] [Preparation 14 (Na^+ Salt), Sodium 2-(Benzyloxymethyl)penem-3-carboxylate]	0.06 µg/mL	–	> 125 µg/mL	> 125 µg/mL	0.03 µg/mL	> 125 µg/mL	–	125 µg/mL	–	32 µg/mL	32 µg/mL	16 µg/mL	> 125 µg/mL	–	32 µg/mL	2 µg/mL	63 µg/mL	16 µg/mL	0.5 µg/mL	–	MIC [1, 13]: > 125 µg/mL; MIC ([3]; read-out: Minimum Inhibitory Concentration (M.I.C.), Staph. aureus A9606 (Pen-Res)): 32 µg/mL; Minimum Inhibitory Concentration (M.I.C.) (K. pneumoniae A-15130; K. pneumoniae A15130): > 125 µg/mL; MIC ([4]; A21205, read-out: Minimum Inhibitory Concentration (M.I.C.)): 63 µg/mL; Minimum Inhibitory Concentration (M.I.C.) (Ent. cloacae A-9659): 63 µg/mL; Minimum Inhibitory Concentration (M.I.C.) (E. coli A-15119; E. coli A15119): 8 µg/mL; Minimum Inhibitory Concentration (M.I.C.) (Pr. vulgaris A-9716; Proteus vulgaris / Proteus mirabilis A9716): 2 µg/mL; MIC (Pr. vulgaris A-9716; A9716, read-out: Minimum Inhibitory Concentration (M.I.C.), Proteus vulgaris / Proteus mirabilis A9716): 4 µg/mL; Minimum Inhibitory Concentration (M.I.C.) [5]: 63 µg/mL; Minimum Inhibitory Concentration (M.I.C.) (Pr. mirabilis A-9900; Proteus mirabilis A9900): 1 µg/mL; Minimum Inhibitory Concentration (M.I.C.) (Ser. marcescens A-20019): 125 µg/mL; MIC (Ent. cloacae A-9656; Enterobacter cloacae A9656): 125 µg/mL
CCCC1=C(C(=O)O)N2C(=O)C[C@H]2S1 [Preparation 15, 2-Propylpenem-3-carboxylic Acid]	8 µg/mL (≈ 37.5 µM)	–	> 125 µg/mL	> 125 µg/mL	1 µg/mL (≈ 4.69 µM)	> 125 µg/mL	16 µg/mL (≈ 75 µM)	> 125 µg/mL	16 µg/mL (≈ 75 µM)	> 125 µg/mL	63 µg/mL (≈ 295 µM)	16 µg/mL (≈ 75 µM)	> 125 µg/mL	16 µg/mL (≈ 75 µM)	> 63 µg/mL	16 µg/mL (≈ 75 µM)	63 µg/mL (≈ 295 µM)	63 µg/mL (≈ 295 µM)	1 µg/mL (≈ 4.69 µM)	63 µg/mL (≈ 295 µM)	MIC [1, 13]: 125 µg/mL (≈ 586 µM); Minimum Inhibitory Concentration (M.I.C.) ([4]; Providencia stuartii (Pr. rettgeri) A21205, overnight 37° C.): 32 µg/mL; Minimum Inhibitory Concentration (M.I.C.) (Ent. cloacae A-9659): 125 µg/mL; Minimum Inhibitory Concentration (M.I.C.) (Ser. marcescens A-20019): 125 µg/mL; MIC (Ent. cloacae A-9656; Enterobacter cloacae A9656): 125 µg/mL (≈ 586 µM)

Reference: US4272437A, “Antibacterial agents, and 4-thio azetidinone intermediates” (priority 1979, dated 1981)
